Data: patent publication US20220274947A1, “NOVEL HETEROARYL-TRIAZOLE COMPOUNDS AS PESTICIDES” (Bayer Aktiengesellschaft, priority 2019, published 2022)

Columns and labels:
Assay type in all cases: in vivo
[1] = system: Rhipicephalus microplus; assay: Rhipicephalus (Boophilus) microplus in-vitro contact test, larval cattle tick, strain Parkhurst (BOOPMI Cont); conditions: application rate 5 μg/cm^2 (=500 g/ha), tick larvae, after 48 hours, read-out: activity (efficacy: 100% means all larvae are dead or moribund)
Experimental: Rhipicephalus (Boophilus) Microplus—In-Vitro Contact Tests Larval Cattle Tick (Strain Parkhurst, Resistant Against Synthetic Pyrethroids) (BOOPMI Cont)
9 mg compound is solved in 1 mL acetone and diluted with acetone to the desired concentration. 250 μL of the test solution is filled in 25 mL glass test tubes and homogeneously distributed on the inner walls by rotation and tilting on a shaking device (2 h at 30 rpm). With a compound concentration of 900 ppm, an inner surface of 44.7 cm^2 and a homogeneous distribution, a dose of 5 μg/cm^2 is achieved.
After the solvent has evaporated, each test tube is filled with 20-50 cattle tick larvae (Rhipicephalus microplus), closed with a perforated lid and incubated in a horizontal position at 85% relative humidity and 27° C. in an incubator. After 48 hours efficacy is determined. The larvae are patted on the ground of the tubes and negative geotactic behavior is recorded.
An efficacy of 100% means all larvae are dead or moribund; 0% means no larvae are dead or moribund.

[2] = system: Ctenocephalides felis; assay: Ctenocephalides felis oral test (CTECFE Oral); conditions: 48 h, read-out: activity (mortality)
Experimental: Ctenocephalides felis—Oral Test (CTECFE Oral) Solvent: dimethyl sulfoxide
To produce a suitable preparation of active compound, 10 mg of active compound are dissolved in 0.5 mL solvent, and the concentrate is diluted with cattle blood to the desired concentration.
Approximately 20 adult unfed cat fleas (Ctenocephalides felis) are placed in flea chambers. The blood chamber, sealed with parafilm on the bottom, are filled with cattle blood supplied with compound solution and placed on the gauze covered top of the flea chamber, so that the fleas are able to suck the blood. The blood chamber is heated to 37° C. whereas the flea chamber is kept at room temperature.
After 2 days mortality in % is determined. 100% means all the fleas have been killed; 0% means none of the fleas have been killed.

[3] = system: Rhipicephalus microplus; assay: Rhipicephalus (Boophilus) microplus injection test (BOOPMI Inj); conditions: 168 h, injection into adult engorged female ticks, egg deposition after 7 days, read-out: activity (efficacy: 100% means all eggs are infertile); for pest or weed control at 0.004 mg: application rate 4 μg/tick; for pest or weed control at 0.02 mg: application rate 20 μg/tick
Experimental: Rhipicephalus (Boophilus) Microplus—Injection Test (BOOPMI Inj)
Solvent: dimethyl sulfoxide
To produce a suitable preparation of active compound, 10 mg of active compound are dissolved in 0.5 mL solvent, and the concentrate is diluted with solvent to the desired concentration.
Five adult engorged female ticks (Rhipicephalus microplus) are injected with 1 μL compound solution into the abdomen. The ticks are transferred into replica plates and incubated in a climate chamber.
After 7 days egg deposition of fertile eggs is monitored. Eggs where fertility is not visible are stored in a climate chamber till hatching after about 42 days. An efficacy of 100% means all eggs are infertile; 0% means all eggs are fertile.

[4] = system: Diabrotica balteata; assay: Diabrotica balteata spray test; conditions: 168 h, wheat seeds, larvae, after 7 days, read-out: activity (efficacy: 100% means all seedlings have grown up like in the untreated, uninfected control); for pest or weed control at 32 µg/disc, 100 g/ha: application rate 100 g/ha (=32 μg/well); for pest or weed control at 160 µg/disc, 500 g/ha: application rate 500 g/ha (=160 μg/well)
Experimental: Diabrotica balteata—Spray Test Solvent: 78.0 parts by weight of acetone • • 1.5 parts by weight of dimethylformamide Emulsifier: alkylarylpolyglycol ether
(§1) To produce a suitable preparation of active compound, 1 part by weight of active compound is mixed with the stated amount of solvent, and the concentrate is diluted with water, containing an emulsifier concentration of 1000 ppm, to the desired concentration. Further test concentrations are prepared by dilution with emulsifier containing water.
Soaked wheat seeds (Triticum aestivum) are placed in a multiple well plate filled with agar and some water and are incubated for 1 day to germinate (5 seeds per well). The germinated wheat seeds are sprayed with a test solution containing the desired concentration of the active ingredient. Afterwards each unit is infected with 10-20 larvae of the banded cucumber beetle (Diabrotica balteata).
After 7 days efficacy in % is determined. 100% means all the seedlings have grown up like in the untreated, uninfected control; 0% means none of the seedlings have grown.

[5] = system: Spodoptera frugiperda; assay: Spodoptera frugiperda spray test; conditions: in Zea mays, 168 h, read-out: activity (mortality)
Experimental: Spodoptera Fruaiperda—Spray Test
Solvent: 78.0 parts by weight acetone • 1.5 parts by weight dimethylformamide Emulsifier: alkylarylpolyglycol ether
as §1, with “solvents” for “solvent,”, “and” for “and the concentrate”
Maize (Zea mays) leaf sections are sprayed with a preparation of the active ingredient of the desired concentration. Once dry, the leaf sections are infested with fall armyworm larvae (Spodoptera frugiperda).
After 7 days mortality in % is determined. 100% means all caterpillars have been killed and 0% means none of the caterpillars have been killed.

[6] = system: Rhipicephalus sanguineus; assay: Rhipicephalus sanguineus in-vitro contact test, adult brown dog ticks (RHIPSA Cont); conditions: 48 h, after 48 hours, read-out: activity (efficacy: 100% means all ticks are dead or moribund); for pest or weed control at 1 µg/cm2, 100 g/ha: application rate 1 μg/cm^2 (=100 g/ha); for pest or weed control at 5 µg/cm2, 500 g/ha: application rate 5 μg/cm^2 (=500 g/ha)
Experimental: Rhipicephalus sanguineus-In-Vitro Contact Tests with Adult Brown Dog Ticks ([…] Cont) 9 mg compound is solved in 1 mL acetone and diluted with acetone to the desired concentration. 250 μL of the test solution is filled in 25 mL glass test tubes and homogeneously distributed on the inner walls by rotation and tilting on a shaking device (2 h at 30 rpm). […] After 48 hours efficacy is determined. The ticks are patted on the ground of the tubes and are incubated on a heating plate at 45-50° C. for at most 5 minutes. Immotile or uncoordinated moving ticks, which are not able to escape the heat by climbing upwards, are marked as dead or moribund.

[7] = system: Musca domestica strain WHO—N; assay: Musca domestica test (MUSCDO surface treatment & contact assay); conditions: surface concentration 4 mg/m^2, glazed tile, exposure 30 minutes, 24 hours after contact, read-out: efficacy (mortality)
Experimental: Musca domestica Test (MUSCDO Surface Treatment & Contact Assay) Solvent: Aceton+2000 ppm rapeseed oil methyl ester (RME)
(§2) In order to produce a sufficient, active ingredient containing solution it is necessary to solve the test compound in the solvent-mix (acetone at 2 mg/ml/RME 2000 ppm). This solution is pipetted onto a glazed tile and after evaporation of the acetone, adult flies of the species Musca domestica strain WHO—N are placed onto the dried surface. The exposure time is 30 minutes. Mortality in percent (%) is determined 24 hours after contact of the insects to the treated surface. 100% mortality means that all tested insects are dead, whereas 0% means that no insect died.

[8] = system: Myzus persicae; assay: Myzus persicae oral test; conditions: 120 h, read-out: activity (mortality)
Experimental: Myzus persicae—Oral Test Solvent: 100 parts by weight acetone
To produce a suitable preparation of active compound, 1 part by weight of active compound is mixed with the stated amount of solvent, and the concentrate is diluted with water to the desired concentration.
50 μL compound solution is filled in microtiter plates and 150 μL IPL41 insect medium (33%+15% sugar) is added to obtain a total volume of 200 μL per well. Afterwards the plates are sealed with parafilm through which a mixed population of the green peach aphid (Myzus persicae) can suck on the compound preparation.
After 5 days mortality in % is determined. 100% means all aphids have been killed and 0% means none of the aphids have been killed.

[9] = system: Aedes aegypti strain MONHEIM; assay: Aedes aegypti test (AEDSAE surface treatment & contact assay); conditions: exposure 30 minutes, 24 hours after contact, read-out: efficacy (mortality); for mortality at 20 mg/m2: surface concentration 20 mg/m^2, glazed tile
Experimental: Aedes aegypti Test (AEDSAE Surface Treatment & Contact Assay) Solvent: Aceton+2000 ppm rapeseed oil methyl ester (RME)
as §2, with “mosquitoes” for “flies”, “Aedes aegypti” for “Musca domestica”, “MONHEIM” for “WHO—N”

Compound	pest or weed control at 5 µg/cm2 [1] [%]	mortality at 100 ppm [2] [%]	pest or weed control at 0.004 mg [3] [%]	pest or weed control at 0.02 mg [3] [%]	pest or weed control at 32 µg/disc, 100 g/ha [4] [%]	mortality at 100 g/ha [5] [%]	pest or weed control at 1 µg/cm2, 100 g/ha [6] [%]	also measured
C[C@H](NC(=O)c1cc(Cl)cc(Cl)c1)c1nc(C2CC2)nn1-c1ccc(C#N)cn1 [I-5]	100	100	100	100	100	100		pest or weed control at 160 µg/disc, 500 g/ha [4]: 100%; mortality at 500 g/ha [5]: 100%
CC(C)c1nc([C@H](C)NC(=O)c2cc(Br)cc(C(F)(F)F)c2)n(-c2ccc(C#N)cn2)n1 [I-21]	100	100	100	100	80	100	100	pest or weed control at 5 µg/cm2, 500 g/ha [6]: 100%
CC(C)c1nc([C@H](C)NC(=O)c2cc(Br)cc(C#N)c2)n(-c2ccc(C#N)cn2)n1 [I-25]	100	100	100	100	100	100	100	pest or weed control at 5 µg/cm2, 500 g/ha [6]: 80%
C[C@H](NC(=O)c1cc(Cl)cc(OC(F)(F)F)c1)c1nc(C2CC2)nn1-c1ccc(C#N)cn1 [I-33]	100		100	100	100			mortality at 4 mg/m2 [7]: 80 to 100%
C[C@H](NC(=O)c1cc(Br)cc(Br)c1)c1nc(C2CC2)nn1-c1ccc(C#N)cn1 [I-36]	100	90	100		100	100	100	
C[C@H](NC(=O)c1cc(Br)cc(OC(F)(F)F)c1)c1nc(C2CC2)nn1-c1ccc(C#N)cn1 [I-41]	100	100	100			100		
CC(NC(=O)c1cncc(C(F)(F)F)c1)c1nc(Br)nn1-c1ccc(C#N)cn1 (stereo not drawn) [I-50]	100							mortality at 4 ppm [8]: 100%
COc1nc([C@H](C)NC(=O)c2cc(OC(F)(F)F)cc(C(F)F)c2)n(-c2ccc(C#N)cn2)n1 [I-63]	100				100	100		mortality at 4 ppm [8]: 100%
C[C@H](NC(=O)c1cc(Cl)cc(OC(F)(F)F)c1)c1ncnn1-c1cc(NC(=O)c2ccc(F)cc2)ccn1 [II-20]		100	100	100				
Cc1nc([C@H](C)NC(=O)c2cc(Cl)cc(OC(F)(F)F)c2)n(-c2cc(C#N)ccn2)n1 [II-34]	100		100	100	100	100	100	pest or weed control at 5 µg/cm2, 500 g/ha [6]: 100%; mortality at 4 mg/m2 ([9]; surface concentration 4 mg/m^2, glazed tile): 80 to 100%; mortality at 20 mg/m2 [9]: 80 to 100%; pest or weed control at 160 µg/disc, 500 g/ha [4]: 100%; mortality at 500 g/ha [5]: 100%
Cc1nc([C@H](C)NC(=O)c2cccc(Br)n2)n(-c2ccc(C#N)cn2)n1 [II-59]		90	100	100			80	pest or weed control at 5 µg/cm2, 500 g/ha [6]: 80%
CC[C@H](NC(=O)c1cc(Cl)cc(C(F)(F)F)c1)c1nc(C)nn1-c1ncc(OC(F)F)cn1 [II-60]	100	100	100	100				
C[C@H](NC(=O)c1cc(C(F)(F)F)cc(C(F)(F)F)c1)c1ncnn1-c1cc(C(=O)NCC(F)(F)F)ccn1 [II-87]	80				100	100		mortality at 4 ppm [8]: 100%
C[C@H](NC(=O)c1cc(C(F)(F)F)cc(C(F)(F)F)c1)c1ncnn1-c1cc(C(=O)NCC#N)ccn1 [II-89]	80		80		100			mortality at 0.8 ppm [8]: 100%; mortality at 4 ppm [8]: 100%
C[C@H](NC(=O)c1cc(Cl)cc(C(F)F)c1)c1ncnn1-c1ccc(C#N)cn1 [II- 12]								mortality at 20 mg/m2 [9]: 80 to 100%
